The record followed here is patent US10570180B2, “Anti-bacterial agents and their use in therapy” (priority 2015, dated 2020).

In brackets after ≈: the same amount, converted by molar mass. Where two headings read alike, the source gives them in different places. Some results are limits rather than exact numbers.

One assay has as its system E. faecium CTC 492. Put plainly: MIC assay of antibiotics with ATX-101. The settings on record: for MIC: Enterococcus faecium, CTC492, E. faecium CTC 492, read-out: Est MIC. It is filed as cell-based, Enterococcus faecium. As for the experimental part:
The minimum inhibitory concentration (MIC) of ATX-101 (SEQ ID NO: 1289) was determined for various gram negative and gram positive bacteria. The bacteria, Pseudomonas aeruginosa ATCC 15692, Acinetobacter baumenni ATCC 19600, Escherichia coli ATCC 25922, Pseudomonas aeruginosa TO-5A (clinical isolate), Enterococous faecium CCUG 37832, Enterococcus faecium CTC 492, Micrococcus luteus ATCC 9341 and Escherichie coli NCIMB 12210 were grown in the presence of various concentrations of ATX-101 and/or antibiotic.
(§1) ATX-101 was dissolved in Mueller-Hinton broth to 1.25 times of the desired assay concentration. Antibiotics were dissolved in Mueller-Hinton broth and Mueller-Hinton broth with ATX-101 at a concentration of 1.25 times the highest desired assay concentrations. Antibiotics were pharmaceutical grade purchased from Sigma-Aldrich.
(§2) Two-fold serial dilutions of antibiotics were made in Mueller-Hinton with different concentrations of ATX-101, and the solutions were placed in four parallel wells is Nunc 384-well micro plates (30 μl per well in Nunc 242757 microplates). A group of 8 wells with no addition of antibiotics for each ATX-101 concentration was included on each micro plate as a growth reference.
(§3) At the day of analysis, overnight TSB cultures inoculated from freeze stocks (6 ml in 50 ml tube tilted to 45-degrees angle, 200 rpm, 2.5 cm amplitude, 37° C.) were diluted in TSB until the OD800 was 0.10, and further diluted 1:40 in Mueller-Hinton broth. Each well in the 384-well assay plates was inoculated with 7.5 μl of the diluted culture, giving the same dilution of the culture in the assay cultures. The microplates were placed in plastic bags and incubated without shaking at 37° C. The optical density at 600 nm in the microwells was measured after approximately 19 hours of incubation, and the relative growth yield was calculated based on the growth in the reference groups. The MIC value was set to the highest concentration giving less than 30% growth in all 4 parallel wells within the sample groups. The microplates were further incubated for 6 hours, and optical density in the cultures was measured once more for confirmation of the estimated MIC-values.
(§4) The APIM peptide was dissolved in Mueller-Hinton broth to 1.25 times of the desired assay concentration. Antibiotics were dissolved in Mueller-Hinton broth and Mueller-Hinton broth with APIM at a concentration of 1.25 times the highest desired assay concentrations. Antibiotics were pharmaceutical grade purchased from Sigma-Aldrich.
(§5) Two-fold serial dilutions of antibiotics were made in Mueller-Hinton with different concentrations of APIM, and the solutions were placed in four parallel wells in Nunc 384-well micro plates (30 μl per well in Nunc 242757 microplates). A group of 8 wells with no addition of antibiotics for each APIM concentration was included on each micro plate as growth reference.
as §3, with “inoculated” for “inoculated from”, “OD600” for “OD800”, “culture.” for “culture, giving the same dilution of the culture in the assay cultures.”, “yield in each well” for “yield”

In assay [1] the test system is Staphylococcus aureus MRSA 1040s. Put plainly: microbe, parasite or virus in culture. The class given is cell-based. The settings on record: for MIC: Staphylococcus aureus, Table 6, alone, MRSA 1040s, read-out: MIC; for MIC when combined with 10 μg/ml of ATX-101: Table 6, MRSA 1040s. How it is done: as §1, §2, §3, §4, §5
as §3, with “inoculated” for “inoculated from”, “OD600” for “OD800”, “culture.” for “culture, giving the same dilution of the culture in the assay cultures.”, “yield in each well” for “yield”
In view of the anti-bacterial effect of ATX-101 on strains of MRSA, the MIC for a variety of APIM variants was determined using Staphylococcus aureus MRSA 1040s. […] A cell penetrating peptide (SEQ ID NO: 337) present in all of the APIM peptides, was used as a negative control.
Next, the effect of APIM peptides on the MIC of antibiotics was determined using Staphylococcus aureus MRSA 1040s.
The MICS for various APIM peptides were determined for various bacteria, as described above.

The subject of a further assay is A. baumanii ATCC 19606. Put plainly: MIC assay of antibiotics with ATX-101. The class given is cell-based. The settings on record: for MIC: Acinetobacter baumannii; for Est MIC: A. baumanii ATCC 19606. As for the experimental part: as §4, §5
as §3, with “inoculated” for “inoculated from”, “OD600” for “OD800”, “culture.” for “culture, giving the same dilution of the culture in the assay cultures.”, “yield in each well” for “yield”

The mark [2] stands for this setting: ATCC19606, A. baumanii ATCC 19606, APIM (ATX-101) conc. 2 μg/ml, read-out: Est MIC.
Setting [3] is: ATCC19606, A. baumanii ATCC 19606, APIM (ATX-101) conc. 4 μg/ml, read-out: Est MIC.
The mark [4] stands for this setting: ATCC19606, A. baumanii ATCC 19606, APIM conc. 0 μg/ml, read-out: Est MIC.
The mark [5] stands for this setting: ATCC19606, A. baumanii ATCC 19606, APIM (ATX-101) conc. 8 μg/ml, read-out: Est MIC.

Consider `CC1(C)S[C@@H]2[C@H](NC(=O)[C@H](N)c3ccccc3)C(=O)N2[C@H]1C(=O)O` [Ampicillin], for which the MIC in the assay on E. faecium CTC 492 (APIM (ATX-101) conc. 6.5 μg/ml) turned out to be 0.5 µg/mL (≈ 1.43 µM); with E. faecium CTC 492 (APIM (ATX-101) conc. 13 μg/ml), 0.5 µg/mL (≈ 1.43 µM); in the assay with E. faecium CTC 492 (APIM conc. 0 μg/ml), 1 µg/mL (≈ 2.86 µM). In addition, the “ampicillin concentration sufficient to inhibit bacterial growth” value in the assay on E. faecium CTC 492 (combined with 6.5 μg/ml or 13 μg/ml ATX-101, FIG. 3) is listed as “about 0.5 μg/ml”. Moreover, the “ampicillin concentration required for the same level of inhibition” value in the assay on E. faecium CTC 492 (without ATX-101, FIG. 3) was found to be 1 µg/mL.
In the case of `CN[C@@H]1[C@@H](O[C@H]2O[C@H](CO)[C@@H](N)[C@H](O)[C@H]2O)OC2C[C@@H](N)[C@@H](O[C@H]3[C@H](O)[C@@H](O)[C@H](N)C[C@@H]3N)OC2[C@@H]1O` (stereo partly drawn) [Apramycin], the figures for the MIC in the assay with E. faecium CTC 492 (APIM (ATX-101) conc. 6.5 μg/ml), in the assay with E. faecium CTC 492 (APIM (ATX-101) conc. 13 μg/ml) and with E. faecium CTC 492 (APIM conc. 0 μg/ml) were 64 µg/mL (≈ 119 µM), 32 µg/mL (≈ 59.3 µM) and 64 µg/mL (≈ 119 µM), respectively.
In the case of `CC[C@H]1OC(=O)[C@H](C)[C@@H](O[C@H]2C[C@@](C)(OC)[C@@H](O)[C@H](C)O2)[C@H](C)[C@@H](O[C@@H]2O[C@H](C)C[C@H](N(C)C)[C@H]2O)[C@](C)(O)C[C@@H](C)CN(C)[C@H](C)[C@@H](O)[C@]1(C)O` [Azithromycin, reference compound], in assay [1], the MIC was more than 1030 µg/mL and the “MIC when combined with 10 μg/ml of ATX-101” value was 8 µg/mL.
For the compound `CC[C@H]1OC(=O)[C@H](C)[C@@H](O[C@H]2C[C@@](C)(OC)[C@@H](O)[C@H](C)O2)[C@H](C)[C@@H](O[C@@H]2O[C@H](C)C[C@H](N(C)C)[C@H]2O)[C@](C)(O)C[C@@H](C)C(=O)[C@H](C)[C@@H](O)[C@]1(C)O` [Erythromycin], the MIC was 4 µg/mL (≈ 5.45 µM) in the assay with E. faecium CTC 492 (APIM (ATX-101) conc. 6.5 μg/ml), 1 µg/mL (≈ 1.36 µM) in the assay with E. faecium CTC 492 (APIM (ATX-101) conc. 13 μg/ml), 4 µg/mL (≈ 5.45 µM) in the assay with E. faecium CTC 492 (APIM conc. 0 μg/ml) and more than 1030 µg/mL in assay [1]. For the same compound, in assay [1], the “MIC when combined with 10 μg/ml of ATX-101” value is 2 µg/mL.
As to `C[C@@H](O)[C@H]1C(=O)N2C(C(=O)O)=C(SCCN=CN)C[C@H]12` [Imipenem], the MIC in the assay on E. faecium CTC 492 (APIM (ATX-101) conc. 6.5 μg/ml) came out at 2 µg/mL (≈ 6.68 µM); with E. faecium CTC 492 (APIM (ATX-101) conc. 13 μg/ml), 2 µg/mL (≈ 6.68 µM); in the assay with E. faecium CTC 492 (APIM conc. 0 μg/ml), 4 µg/mL (≈ 13.4 µM); with A. baumanii ATCC 19606 (setting [2]) it was 0.125 µg/mL (≈ 0.418 µM); with A. baumanii ATCC 19606 (setting [3]) it was 0.125 µg/mL (≈ 0.418 µM); in the assay on A. baumanii ATCC 19606 (setting [4]), 0.25 µg/mL (≈ 0.835 µM).
On to `CC[C@@]1([C@@H]2O[C@@H]([C@H]3O[C@@](O)(CO)[C@H](C)C[C@@H]3C)C[C@@H]2C)CC[C@H]([C@]2(C)CC[C@]3(C[C@H](O)[C@@H](C)[C@@H]([C@@H](C)[C@@H](OC)[C@H](C)C(=O)O)O3)O2)O1` [Monensin], for which the MIC in the assay with E. faecium CTC 492 (APIM (ATX-101) conc. 6.5 μg/ml) was determined as 0.5 µg/mL (≈ 0.745 µM); in the assay with E. faecium CTC 492 (APIM (ATX-101) conc. 13 μg/ml) it was 0.5 µg/mL (≈ 0.745 µM); in the assay with E. faecium CTC 492 (APIM conc. 0 μg/ml), 1 µg/mL (≈ 1.49 µM); in the assay with A. baumanii ATCC 19606 (setting [2]), 64 µg/mL (≈ 95.4 µM); with A. baumanii ATCC 19606 (setting [3]), 64 µg/mL (≈ 95.4 µM); in the assay with A. baumanii ATCC 19606 (setting [5]), 32 µg/mL (≈ 47.7 µM). The MIC with A. baumanii ATCC 19606 (setting [4]) was 64 µg/mL (≈ 95.4 µM).
As to `CO[C@H]1/C=C/O[C@@]2(C)Oc3c(C)c(O)c4c(O)c(c(/C=N/N5CCN(C)CC5)c(O)c4c3C2=O)NC(=O)/C(C)=C\C=C\[C@H](C)[C@H](O)[C@@H](C)[C@@H](O)[C@@H](C)[C@H](OC(C)=O)[C@@H]1C` [Rifampicin], the MIC stood at 32 µg/mL (≈ 38.9 µM) with E. faecium CTC 492 (APIM (ATX-101) conc. 6.5 μg/ml); 4 µg/mL (≈ 4.86 µM) in the assay on E. faecium CTC 492 (APIM (ATX-101) conc. 13 μg/ml); 8 µg/mL (≈ 9.72 µM) with E. faecium CTC 492 (APIM (ATX-101) conc. 20 μg/ml); 16 µg/mL (≈ 19.4 µM) with E. faecium CTC 492 (APIM conc. 0 μg/ml); 2 µg/mL (≈ 2.43 µM) in the assay with A. baumanii ATCC 19606 (setting [2]); 1 µg/mL (≈ 1.22 µM) with A. baumanii ATCC 19606 (setting [3]). The MIC was determined as 1 µg/mL (≈ 1.22 µM) in the assay on A. baumanii ATCC 19606 (setting [5]) and 2 µg/mL (≈ 2.43 µM) in the assay on A. baumanii ATCC 19606 (setting [4]).
For `NC[C@H]1O[C@H](O[C@H]2[C@H](O)[C@@H](O[C@H]3O[C@H](CO)[C@@H](O)[C@H](N)[C@H]3O)[C@H](N)C[C@@H]2N)[C@H](N)C[C@@H]1O` [Tobramycin], the MIC is 64 µg/mL (≈ 137 µM) with E. faecium CTC 492 (APIM (ATX-101) conc. 6.5 μg/ml), 32 µg/mL (≈ 68.4 µM) in the assay on E. faecium CTC 492 (APIM (ATX-101) conc. 13 μg/ml) and 64 µg/mL (≈ 137 µM) in the assay with E. faecium CTC 492 (APIM conc. 0 μg/ml).
Turning to `CN[C@H](CC(C)C)C(=O)N[C@H]1C(=O)N[C@@H](CC(N)=O)C(=O)N[C@H]2C(=O)N[C@H]3C(=O)N[C@H](C(=O)N[C@H](C(=O)O)c4cc(O)cc(O)c4-c4cc3ccc4O)[C@H](O)c3ccc(c(Cl)c3)Oc3cc2cc(c3O[C@@H]2O[C@H](CO)[C@@H](O)[C@H](O)[C@H]2O[C@H]2C[C@](C)(N)[C@H](O)[C@H](C)O2)Oc2ccc(cc2Cl)[C@H]1O` [Vancomycin], the MIC came out at 32 µg/mL (≈ 22.1 µM) in the assay on A. baumanii ATCC 19606 (ATCC19606, read-out: Est MIC, A. baumanii ATCC 19606, APIM (ATX-101) conc. 2 μg/ml); 16 µg/mL (≈ 11 µM) in the assay on A. baumanii ATCC 19606 (ATCC19606, read-out: Est MIC, A. baumanii ATCC 19606, APIM (ATX-101) conc. 4 μg/ml); 32 µg/mL (≈ 22.1 µM) with A. baumanii ATCC 19606 (ATCC19606, read-out: Est MIC, A. baumanii ATCC 19606, APIM conc. 0 μg/ml).
As for Gentamicin, the figures for the “Est MIC” value in the assay on A. baumanii ATCC 19606 (APIM (ATX-101) conc. 2 μg/ml), in the assay with A. baumanii ATCC 19606 (APIM (ATX-101) conc. 4 μg/ml) and in the assay on A. baumanii ATCC 19606 (APIM conc. 0 μg/ml) were 16 µg/mL, 8 µg/mL and 16 µg/mL, respectively.
